Measured values reported in US9181249B2, “Substituted pyrido[3,4-b]pyrazines as GPR6 modulators” (Takeda Pharmaceutical Company Limited, priority 2013, dated 2015).
Marks after values point to notes of the source that are not given here.

Experiments:
[1] = system: 6-hydroxydopamine lesioned rats (motor activity); experiment: Example C 6-Hydroxydopamine Lesion Model In Vivo Rodent Parkinson's Disease Model; details: adult female rats, bilateral striatal 6-hydroxydopamine lesion, counts for 3 hours after dosing
Experimental: 6-Hydroxydopamine Lesion Model In Vivo Rodent Parkinson's Disease Model
Adult female rats (10) were first assessed for pre-surgery motor activity using an automated activity tracking system that records beam breaks across the testing arena floor. Beam breaks were summed over the first 3 hours after the animals were placed into the arena and recorded as activity counts. To selectively damage dopaminergic nerve terminals in the striatum, 20 μg of the 6-hydroxydopamine was injected directly into the striatum bilaterally (i.e., on both sides of the brain). After 4 weeks of recovery, the rats were again tested for motor activity, and a significant reduction in activity counts was observed. Vehicle and the compound of Example 47 (0.5% methylcellulose) was orally dosed at 0.1, 1.0, or 10 mg/kg in a cross-over study design (5-10 day wash out period), and after dosing activity counts were measured for 3 hours. At the end of the study period, when each animal had received each treatment once, the data were analyzed. The activity counts (standard error of the mean) for the group pre-surgery and post-surgery and for treated and vehicle control were determined and are provide in Table 3 below: […]

[2] = system: haloperidol-induced catalepsy; experiment: Example B Haloperidol-Induced Catalepsy In Vivo Rodent Parkinson's Disease Model; details: Rat
Description: Haloperidol-Induced Catalepsy In Vivo Rodent Parkinson's Disease Model
The motor symptoms of Parkinson's disease include akinesia, bradykinesia, rigidity, tremor and postural abnormalities and are associated with the loss of nigral dopaminergic cells and a decline in striatal dopamine levels. Administration of haloperidol to rodents leads to a transient parkinsonian-like state that is reversed by the administration of L-Dopa (Duty, S.; Jenner, P. Br. J. Pharmacol. (2011), 164, 1357-1391) and other drugs that have been clinically validated for the treatment of Parkinson's disease. Haloperidol antagonizes dopamine D2 and, to a lesser extent, D1 receptors in medium spiny neurons that comprise the indirect and direct pathways of the motor circuit respectively. The resultant block of striatal dopamine transmission results in abnormal downstream firing within the basal ganglia circuits that is manifest as symptoms of muscle rigidity and catalepsy. Catalepsy has been postulated to reflect the clinical features of Parkinson's disease, whereby patients experience an inability of to initiate movements.
Male Sprague-Dawley rats (Charles River, Calco, Italy) weighing 175-200 g are used. Alternatively, male C57Bl6 mice weighing 25-35 g were used. The cataleptic state was induced by the subcutaneous administration of the dopamine receptor antagonist haloperidol (0.3 mg/kg, sc), 90 min before testing the animals on the vertical grid test. For this test, the rats or mice were placed on the wire mesh cover of a 25 cm×43 cm plexiglass cage placed at an angle of about 70 degrees with the bench table. The subject was placed on the grid with all four legs abducted and extended (“frog posture”). The use of such an unnatural posture is essential for the specificity of this test for catalepsy. The time span from placement of the paws until the first complete removal of one paw (descent latency) was measured maximally for 120 sec for rats. For mice, the front paws of a mouse was placed on a horizontal metal bar raised 2″ above a Plexiglas platform and time was recorded for up to 30 seconds per trial. The test ended when the animal's front paws returned to the platform or after 30 seconds. The test was repeated three times and the average of the three trials was reported as the intensity index of catalepsy.
Catalepsy was measured 30 min, 120 min, and/or 240 min after dosing the subjects a 0.3 mg/kg i.p. dose of haloperidol along with the GPR6 modulator test compound. Test compound plasma and brain levels were determined by collected tissue samples at the end of the experiment, which was either at the 120 or 240 min time point. A representative number of compounds of the invention were administered in a dose range from 0.1 to 100 mg/kg i.p, sc or po in conjunction with haloperidol. The A2a antagonist KW6002 (istradefylline) was dosed at 0.6 mg/kg i.p. as a positive control.

Compound: CC(=O)N1CCc2nc(N3CCC(Oc4ccc(F)cc4F)CC3)c(NC(C)C)nc2C1 [Example 47, 1-(2-(4-(2,4-difluorophenoxyl)piperidin-1-yl)-3-(isopropylamino)-7,8-dihydropyrido[3,4-b]pyrazin-6(5H)-yl)ethanone]
- activity counts, Mean ([1]; orally dosed 0.1 mg/kg): 11422*
- activity counts, Mean ([1]; orally dosed 1.0 mg/kg): 15334*
- activity counts, Mean ([1]; orally dosed 10 mg/kg): 19368*
- % reversal 30 min ([2]; 0.1 mpk i.p.): −5.7%
- % reversal 120 min ([2]; 0.1 mpk i.p.): 27.3%
- % reversal 30 min ([2]; 1 mpk i.p.): 39.1%
- % reversal 120 min ([2]; 1 mpk i.p.): 57.9* %
- % reversal 30 min ([2]; 10 mpk i.p.): 83.4* %
- % reversal 120 min ([2]; 10 mpk i.p.): 76.5* %
- % reversal 30 min ([2]; 30 mpk i.p.): 75.7* %
- % reversal 120 min ([2]; 30 mpk i.p.): 82.1* %
